# Results as given in PubChem BioAssay (NCI).
#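 These data come from cells grown in 96-well plates and exposed to compound for 48 hours at five concentrations. Here, GI50 denotes the concentration required for 50% inhibition of growth. Definition used: TGI = concentration required for complete inhibition of growth.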
# Tests used:
# Experiment in all cases: inhibition of tumour cell growth, NCI panel, 48 h
# [1] = test system: LOX IMVI melanoma
# [2] = test system: OVCAR-4 ovarian
# [3] = test system: K-562 leukemia
# [4] = test system: KM12 colon
# [5] = test system: SF-295 CNS
# [6] = test system: SK-MEL-28 melanoma
# [7] = test system: SR leukemia
# [8] = test system: SNB-19 CNS
# [9] = test system: RPMI-8226 leukemia
# [10] = test system: BT-549 breast
Compound,TGI [1] [µM],TGI [2] [µM],TGI [3] [µM],TGI [4] [µM],TGI [5] [µM],TGI [6] [µM],TGI [7] [µM],TGI [8] [µM],GI50 [1] [µM],GI50 [2] [µM],GI50 [9] [µM],TGI [9] [µM],GI50 [4] [µM],GI50 [5] [µM],GI50 [6] [µM],GI50 [7] [µM],GI50 [10] [µM],TGI [10] [µM],GI50 [8] [µM],GI50 [3] [µM]
O=c1cc2n(c(=O)[nH]1)C1OC(C(O)C1O)[C@H]2CCO (stereo partly drawn),> 100,> 100,> 100,> 100,> 100,> 100,> 100,> 100,–,–,–,–,–,–,–,–,–,–,–,–
O=C(CCCCCCC(=O)N/N=C/c1ccc(N(c2ccccc2)c2ccccc2)cc1)NO,1.61,8.72,–,13.1,4.47,11.6,14.1,15.9,0.432,1.65,1.88,14,2.72,1.77,3.06,2.38,2.38,11.5,3.35,–
COc1ccc2nc3cc(Cl)ccc3c(NCCC(=O)OCC(O)C(O)C(O[C@H](C)C(=O)NC(C)C(=O)NC(CCC(N)=O)C(=O)OCc3ccccc3)C(C=O)NC(C)=O)c2c1 (stereo partly drawn),–,34.3,68,41.7,34.3,32.1,23.6,62.1,–,–,–,–,–,–,–,–,–,–,–,–
C=CCCC(O)c1ccc(C(O)CCCCCCCCCCCC)o1 (stereo not drawn),29.7,92.9,27.2,42.8,> 100,65.5,–,> 100,16.2,30.9,27.1,> 100,21.7,36.7,27.1,–,19.9,42.2,51.6,9.29
C[C@]12CCC3[C@@H](C[C@H]4OC(=O)[C@@]35CCC(=O)C=C45)C1CCC2=O (stereo partly drawn),–,–,> 100,> 100,> 100,> 100,> 100,> 100,–,–,–,> 100,–,–,–,–,–,–,–,–
COc1ccc(Nc2c3c4c(cccc4[nH]c2=O)C(=O)c2ccccc2-3)cc1,> 100,> 100,–,0.181,< 0.0275,> 100,–,> 100,0.0239,0.971,–,–,< 0.0182,< 0.0174,11,–,0.0268,0.0708,0.684,–
COc1ccc(/C=C2\N=C(c3ccccc3)N(c3cc(C(F)(F)F)ccc3Cl)C2=O)cc1OC,51.6,> 100,87.6,> 100,> 100,> 100,0.0635,> 100,23.8,39.2,25.8,80.8,39,95,46.9,–,–,–,46.4,31.2
[N-]=[N+]=Nc1ccccc1-[n+]1noc([O-])c1Br,–,> 100,> 100,> 100,> 100,> 100,> 100,> 100,–,–,–,> 100,–,–,–,–,–,–,–,–
O=C1CSC(=S)N1c1ccc(F)cc1F,> 100,> 100,–,> 100,> 100,> 100,–,> 100,–,–,–,66.4,–,–,–,–,–,> 100,–,–
Cc1cc2cc(Cl)ccc2nc1C(=O)c1ccccc1,> 100,> 100,> 100,> 100,> 100,> 100,> 100,> 100,–,–,–,> 100,–,–,–,–,–,–,–,–
Nc1nc(=O)n(C2CC(O)C(O)C(CO)O2)cc1F (stereo not drawn),> 100,> 100,> 100,–,> 100,> 100,–,> 100,–,–,–,> 100,–,–,–,–,–,–,–,–
COC(=O)CSc1ccccc1,> 100,> 100,> 100,> 100,> 100,–,–,> 100,–,–,–,> 100,–,–,–,–,–,–,–,–
COC(=O)CCC(=O)CC(=O)C(=O)Nc1ccc(F)cc1,> 100,> 100,> 100,> 100,–,> 100,–,> 100,–,–,–,> 100,–,–,–,–,–,–,–,–
N#Cc1ccc(/C=N\N2C(=O)c3ccccc3C2=O)cc1,> 100,> 100,> 100,> 100,> 100,> 100,> 100,> 100,–,–,–,> 100,–,–,–,–,–,–,–,–
CNc1nnnn1C1OC(CO)C(O)C1O (stereo not drawn),> 100,–,> 100,> 100,> 100,–,–,–,–,–,–,> 100,–,–,–,–,–,–,–,–
CC(C)(C)C(=O)OCOP(=O)(OCOC(=O)C(C)(C)C)C1CCCN(OC(=O)c2ccccc2)C1=O (stereo not drawn),20.9,> 100,> 100,5.94,–,3.57,–,17,2.53,3.56,0.605,3.51,0.549,–,1.05,–,2.64,17.9,1.51,0.496
CCCCCCCCCCCCOC1C(CNC(=O)C2OC3OC(C)(C)OC3C2NC(=O)CN2CCN(c3ccccn3)CC2)OC2OC(C)(C)OC21 (stereo not drawn),3.53,7.7,4.56,4.43,3.48,7.47,1.86,7.99,1.88,2.52,–,–,2.16,1.77,2.53,–,1.83,3.39,2.96,1.67
COc1ccc(C(=O)/C(=N/Nc2ccccc2)c2ccc(OC)cc2)cc1,–,> 100,> 100,> 100,> 100,> 100,–,> 100,–,–,–,> 100,–,–,–,–,–,–,–,–
COc1ccc(CN2C(=O)C(Cc3cc(OC)c(OC)c(C)c3OC)N(C(=O)OC(C)C)C(=O)/C2=C/c2cc(OC)c(OC)c(C)c2OC)cc1 (stereo not drawn),> 100,> 100,> 100,> 100,> 100,> 100,89.8,> 100,–,–,–,> 100,–,–,–,–,–,–,–,–
Cn1c(=O)nc2n(-c3ccc(F)cc3)c3ccccc3nc-2c1=O,–,27.8,45.8,> 100,40.8,–,–,37.4,–,–,–,70.9,–,–,–,–,–,–,–,–
CCOC(=O)C1c2[nH]c3ccccc3c2CCN1C(=O)c1ccco1 (stereo not drawn),–,> 10,> 10,> 10,> 10,> 10,> 10,> 10,–,–,–,> 10,–,–,–,–,–,> 10,–,–
